From patent US8884061B2, “Compositions and methods of use of electron transport system inhibitors” (priority 2006, dated 2014)
Read-outs that look alike come from different tables or passages of the source.

Assays:
[1] = tested on: MRSA 2441-05112; assay: MIC, other bacteria (Table 3); assay type: cell-based, S. aureus; settings: inoculum size 10^6 CFU/ml
[2] = tested on: M. avium Flamingo; assay: MIC, agar (7H11) dilution method; assay type: cell-based; settings: Mycobacterium avium, read-out: Minimum inhibitory concentrations (MIC)
[3] = tested on: M. tuberculosis Kurono; assay: MIC, agar (7H11) dilution method; assay type: cell-based; settings: Mycobacterium tuberculosis, read-out: Minimum inhibitory concentrations (MIC)
[4] = tested on: MRSA 2441-05129; assay: MIC, other bacteria (Table 3); assay type: cell-based, S. aureus; settings: inoculum size 10^6 CFU/ml
[5] = tested on: E. faecium NCTC 12203 (VRE); assay: MIC, other bacteria (Table 3); assay type: cell-based; settings: high level VCM-resistant, Van A, inoculum size 10^6 CFU/ml
[6] = tested on: MRSA 2441-05104; assay: MIC, other bacteria (Table 3); assay type: cell-based, S. aureus; settings: inoculum size 10^6 CFU/ml
[7] = tested on: S. marsascens ATCC 14756; assay: MIC, other bacteria (Table 3); assay type: cell-based; settings: inoculum size 10^6 CFU/ml
[8] = tested on: MRSE 2442-05030; assay: MIC, other bacteria (Table 3); assay type: cell-based, S. epidermidis; settings: inoculum size 10^6 CFU/ml
[9] = tested on: S. aureus ATCC 43300 (MRSA); assay: MIC, other bacteria (Table 3); assay type: cell-based; settings: inoculum size 10^6 CFU/ml
[10] = tested on: MRSA 2441-05262; assay: MIC, other bacteria (Table 3); assay type: cell-based, S. aureus; settings: inoculum size 10^6 CFU/ml
[11] = tested on: P. mirabilis ATCC 4630; assay: MIC, other bacteria (Table 3); assay type: cell-based
[12] = tested on: E. faecium ATCC 49224; assay: MIC, other bacteria (Table 3); assay type: cell-based; settings: E. faecium ATCC 49224, GM-resistant, inoculum size 10^6 CFU/ml
[13] = tested on: MRSE 2442-05118; assay: MIC, other bacteria (Table 3); assay type: cell-based, S. epidermidis; settings: inoculum size 10^6 CFU/ml
[14] = tested on: E. faecalis ATCC 29212; assay: MIC, other bacteria (Table 3); assay type: cell-based
[15] = tested on: M. tuberculosis H37Rv; assay: MIC, agar (7H11) dilution method; assay type: cell-based; settings: Mycobacterium tuberculosis, H37RV
[16] = tested on: M. smegmatis Takeo; assay: MIC, agar (7H11) dilution method; assay type: cell-based; settings: Mycolicibacterium smegmatis, read-out: Minimum inhibitory concentrations (MIC)
[17] = tested on: M. fortuitum NIHJ1615; assay: MIC, agar (7H11) dilution method; assay type: cell-based; settings: Mycolicibacterium fortuitum, read-out: Minimum inhibitory concentrations (MIC)
[18] = tested on: P. aeruginosa ATCC 27853; assay: MIC, other bacteria (Table 3); assay type: cell-based
[19] = tested on: M. bovis BCG Tokyo; assay: microbe, parasite or virus in culture; assay type: cell-based; settings: Mycobacterium tuberculosis variant bovis BCG, BCG, read-out: Minimum inhibitory concentrations (MIC)
[20] = tested on: VRSA 2441-T0041; assay: MIC, other bacteria (Table 3); assay type: cell-based, S. aureus; settings: VRSA 2441-T0041, low level VCM-resistant, inoculum size 10^6 CFU/ml
[21] = tested on: K. pneumoniae ATCC 27736; assay: MIC, other bacteria (Table 3); assay type: cell-based
[22] = tested on: MRSA 2441-05223; assay: MIC, other bacteria (Table 3); assay type: cell-based, S. aureus; settings: inoculum size 10^6 CFU/ml
[23] = tested on: MRSE 2442-05060; assay: MIC, other bacteria (Table 3); assay type: cell-based, S. epidermidis; settings: inoculum size 10^6 CFU/ml
[24] = tested on: MRSE 2442-05053; assay: MIC, other bacteria (Table 3); assay type: cell-based, S. epidermidis; settings: inoculum size 10^6 CFU/ml
[25] = tested on: MRSE 2442-05110; assay: MIC, other bacteria (Table 3); assay type: cell-based, S. epidermidis; settings: inoculum size 10^6 CFU/ml
[26] = tested on: E. faecalis ATCC 51299 (VRE); assay: MIC, other bacteria (Table 3); assay type: cell-based; settings: low level VCM-resistant, Van B, inoculum size 10^6 CFU/ml
[27] = tested on: M. kansasii NIHJ1619; assay: MIC, agar (7H11) dilution method; assay type: cell-based; settings: Mycobacterium kansasii, read-out: Minimum inhibitory concentrations (MIC)
[28] = tested on: S. epidermidis ATCC 12228; assay: MIC, other bacteria (Table 3); assay type: cell-based
[29] = tested on: M. aurum; assay: MIC, agar (7H11) dilution method; assay type: cell-based; settings: Mycolicibacterium aurum, read-out: Minimum inhibitory concentrations (MIC)
[30] = tested on: E. coli ATCC 25922; assay: MIC, other bacteria (Table 3); assay type: cell-based
[31] = tested on: E. faecalis NCTC 12201 (VRE); assay: MIC, other bacteria (Table 3); assay type: cell-based; settings: high level VCM-resistant, Van A, inoculum size 10^6 CFU/ml
[32] = tested on: MRSA 2441-05254; assay: MIC, other bacteria (Table 3); assay type: cell-based, S. aureus; settings: inoculum size 10^6 CFU/ml
[33] = tested on: MRSE 2442-05047; assay: MIC, other bacteria (Table 3); assay type: cell-based, S. epidermidis; settings: inoculum size 10^6 CFU/ml
[34] = tested on: S. aureus ATCC 29213; assay: MIC, other bacteria (Table 3); assay type: cell-based
[35] = tested on: M. intracellularae ATCC 15984; assay: MIC, agar (7H11) dilution method; assay type: cell-based; settings: read-out: Minimum inhibitory concentrations (MIC)
[36] = tested on: VRSA 2441-T0044; assay: MIC, other bacteria (Table 3); assay type: cell-based, S. aureus; settings: VRSA 2441-T0044, low level VCM-resistant; inoculum size 10^6 CFU/ml
[37] = Staphylococcus aureus, read-out: MIC
[38] = Staphylococcus epidermidis, read-out: MIC
[39] = Enterococcus faecalis, read-out: MIC

Measured: MIC

C=CCN(C)CCCCCCCCOc1ccc(C(=O)c2ccc(Cl)cc2)c(O)c1 [Cpd #22, (4-(8-(allyl(methyl)amino)octyloxy)-2-hydroxyphenyl)(4-chlorophenyl)methanone]
> 100 µg/mL: [7]; read-out: MIC | [11]; Proteus mirabilis, ATCC4630, inoculum size 10^6 CFU/ml, read-out: MIC | [18]; Pseudomonas aeruginosa, ATCC27853, inoculum size 10^6 CFU/ml, read-out: MIC | [21]; Klebsiella pneumoniae, ATCC27736, inoculum size 10^6 CFU/ml, read-out: MIC
25 µg/mL: [1]; [37] | [6]; [37] | [9]; [37] | [10]; [37] | [20]; [37] | [22]; [37] | [34]; Staphylococcus aureus, ATCC29213, inoculum size 10^6 CFU/ml, read-out: MIC
1.56 µg/mL: [3] | [15]; read-out: Minimum inhibitory concentrations (MIC), M. tuberculosis H37Rv, table line r7 (1st of 5 so labelled) | [15]; read-out: Minimum inhibitory concentrations (MIC), M. tuberculosis H37Rv, table line r8 (2nd of 5 so labelled) | [15]; read-out: Minimum inhibitory concentrations (MIC), M. tuberculosis H37Rv, table line r9 (3rd of 5 so labelled) | [15]; read-out: Minimum inhibitory concentrations (MIC), M. tuberculosis H37Rv, table line r10 (4th of 5 so labelled)
50 µg/mL: [4]; [37] | [30]; Escherichia coli, ATCC25922, inoculum size 10^6 CFU/ml, read-out: MIC | [32]; [37]
6.25 µg/mL: [2] | [5]; Enterococcus faecium, read-out: MIC | [27] | [29] | [35]
12.5 µg/mL: [8]; [38] | [12]; Enterococcus faecium, ATCC49224, read-out: MIC | [13]; [38] | [14]; Enterococcus faecalis, ATCC29212, inoculum size 10^6 CFU/ml, read-out: MIC | [16] | [17] | [23]; [38] | [24]; [38] | [25]; [38] | [26]; [39] | [28]; Staphylococcus epidermidis, ATCC12228, inoculum size 10^6 CFU/ml, read-out: MIC | [31]; [39] | [33]; [38]
3.13 µg/mL: [15]; read-out: Minimum inhibitory concentrations (MIC), M. tuberculosis H37Rv, table line r11 (5th of 5 so labelled) | [19]

COc1cccc(OC)c1C(=O)N[C@@H]1C(=O)N2[C@@H]1SC(C)(C)[C@@H]2C(=O)O [DMPPC, reference compound]
200 µg/mL: [13] | [23]
100 µg/mL: [6] | [31]
1.56 µg/mL: [8] | [28]; inoculum size 10^6 CFU/ml | [34]; inoculum size 10^6 CFU/ml
50 µg/mL: [26]
25 µg/mL: [14]; inoculum size 10^6 CFU/ml
400 µg/mL: [1] | [33]
3.13 µg/mL: [9] | [24] | [25]
>400 µg/mL: [4] | [5] | [7] | [10] | [11]; inoculum size 10^6 CFU/ml | [12] | [36] | [18]; inoculum size 10^6 CFU/ml | [20] | [21]; inoculum size 10^6 CFU/ml | [30]; inoculum size 10^6 CFU/ml | [32]
125 µg/mL: [22]
